Measured values taken from ChEMBL document CHEMBL1145519, “Exploitation of structural and regulatory diversity in glutamate racemases” (Nature, 2007).
The source made the active and inactive calls. No cut-off for these calls is given here.

Legend:
Helicobacter pylori = test: Increase in UDP-MurNAc-Ala level in Helicobacter pylori; format: functional, organism-based

Description for Enterococcus faecium: Activity of Enterococcus faecium MurI
Description for Escherichia coli: Activity of Escherichia coli MurI
Description for Staphylococcus aureus: Activity of Staphylococcus aureus MurI

| Compound | Activity (Helicobacter pylori) | Km (Enterococcus faecium) [µM] | Km (Staphylococcus aureus) [µM] | kcat (Staphylococcus aureus) [s⁻¹] | Km (Escherichia coli) [µM] | kcat (Escherichia coli) [s⁻¹] |
| --- | --- | --- | --- | --- | --- | --- |
| CC(C)Cn1c(=O)n(C)c(=O)c2c(-c3ccncc3)n(Cc3cccc4ccccc34)nc21 | Active |  |  |  |  |  |
| N[C@H](CCC(=O)O)C(=O)O |  | 240 | 140 | 0.567 | 2100 | 43.3 |
| N[C@@H](CCC(=O)O)C(=O)O |  | 1100 | 4600 | 8.5 | 1200 | 12.2 |
